Reference: ChEMBL document CHEMBL5500371, “Arginine and tryptophan-rich dendritic antimicrobial peptides that disrupt membranes for bacterial infection in vivo” (Eur J Med Chem, 2024)
≈ marks a conversion by molar mass, not a printed value. Calls of active or inactive are those of the source. The rule behind the calls is not given here. Where a SMILES comes first, the peptide text is derived from it. Side-chain parts run from the residue outwards.

Tests used:
Acinetobacter baumannii = test: Antibacterial activity against Acinetobacter baumannii ATCC 19606 assessed as inhibition of bacterial growth incubated for 20 hrs by broth microdilution method; format: functional
[1] = Cytotoxicity against HEK293T cells assessed as cell death measured after 1 hr by resazurin dye based analysis; format: toxicity, HEK-293T; details: human, HEK293T cells
Erythrocyte = test: Hemolytic activity in mouse erythrocytes assessed as 10% hemolysis incubated for 1 hr by absorbance based analysis; format: toxicity, cell-based
Staphylococcus aureus = test: Antibacterial activity against Staphylococcus aureus ATCC 25923 assessed as inhibition of bacterial growth incubated for 20 hrs by broth microdilution method; format: functional
Pseudomonas aeruginosa = test: Antibacterial activity against Pseudomonas aeruginosa ATCC 27853 assessed as inhibition of bacterial growth incubated for 20 hrs by broth microdilution method; format: functional
Escherichia coli [2] = test: Antibacterial activity against Escherichia coli ATCC 25922 assessed as inhibition of bacterial growth incubated for 20 hrs by broth microdilution method; format: functional
Klebsiella pneumoniae = test: Antibacterial activity against Klebsiella pneumoniae ATCC 700603 assessed as inhibition of bacterial growth incubated for 20 hrs by broth microdilution method; format: functional
Bacillus subtilis = test: Antibacterial activity against Bacillus subtilis ATCC 23857 assessed as inhibition of bacterial growth incubated for 20 hrs by broth microdilution method; format: functional
Escherichia coli [3] = test: Resistant development in Escherichia coli assessed as increase in MIC at sub-MIC measured after 20 passages; format: functional, organism-based

N=C(N)NCCC[C@H](NC(=O)[C@H](CCCCNC(=O)[C@@H](N)Cc1c[nH]c2ccccc12)NC(=O)[C@@H](N)Cc1c[nH]c2ccccc12)C(N)=O (H-Trp-Lys(Trp)-Arg-NH2)
MIC (Acinetobacter baumannii): > 128 µM
CC50 at 1 h [1]: > 128 µM
MHC10 (Erythrocyte): > 256 µM
MIC (Staphylococcus aureus): > 128 µM
MIC (Pseudomonas aeruginosa): > 128 µM
MIC (Escherichia coli [2]): > 128 µM
MIC (Klebsiella pneumoniae): > 128 µM
MIC (Bacillus subtilis): 128 µM (≈ 86.2 µg/mL)

H-WWKRR-NH2
MIC (Acinetobacter baumannii): > 128 µM
CC50 at 1 h [1]: > 128 µM
MHC10 (Erythrocyte): > 256 µM
MIC (Staphylococcus aureus): > 128 µM
MIC (Pseudomonas aeruginosa): > 128 µM
MIC (Escherichia coli [2]): > 128 µM
MIC (Klebsiella pneumoniae): > 128 µM
MIC (Bacillus subtilis): 128 µM

H-RRRRRRKWWWWWWW-NH2
MIC (Acinetobacter baumannii): 32 µM
CC50 at 1 h [1]: 101 µM
MHC10 (Erythrocyte): 19.48 µM
MIC (Staphylococcus aureus): 8 µM
MIC (Pseudomonas aeruginosa): 32 µM
MIC (Escherichia coli [2]): 16 µM
MIC (Klebsiella pneumoniae): 32 µM
MIC (Bacillus subtilis): 8 µM

N=C(N)NCCC[C@H](NC(=O)[C@H](CCCNC(=N)N)NC(=O)[C@@H](N)CCCNC(=N)N)C(=O)NCCCC[C@H](NC(=O)[C@H](CCCNC(=N)N)NC(=O)[C@H](CCCNC(=N)N)NC(=O)[C@@H](N)CCCNC(=N)N)C(=O)N[C@@H](Cc1c[nH]c2ccccc12)C(=O)N[C@@H](Cc1c[nH]c2ccccc12)C(=O)N[C@@H](Cc1c[nH]c2ccccc12)C(=O)N[C@@H](Cc1c[nH]c2ccccc12)C(=O)N[C@@H](Cc1c[nH]c2ccccc12)C(=O)N[C@@H](Cc1c[nH]c2ccccc12)C(=O)N[C@@H](Cc1c[nH]c2ccccc12)C(N)=O (H-RRRK([Arg-Arg-Arg])WWWWWWW-NH2)
MIC (Acinetobacter baumannii): 16 µM (≈ 38.2 µg/mL)
CC50 at 1 h [1]: 53.5 µM
MHC10 (Erythrocyte): 12.98 µM
MIC (Staphylococcus aureus): 32 µM (≈ 76.3 µg/mL)
MIC (Pseudomonas aeruginosa): 16 µM (≈ 38.2 µg/mL)
MIC (Escherichia coli [2]): 64 µM (≈ 153 µg/mL)
MIC (Klebsiella pneumoniae): 64 µM (≈ 153 µg/mL)
MIC (Bacillus subtilis): 16 µM (≈ 38.2 µg/mL)

H-WWWWWWKRRRRRR-NH2
MIC (Acinetobacter baumannii): 32 µM
CC50 at 1 h [1]: 45 µM
MHC10 (Erythrocyte): 34.63 µM
MIC (Staphylococcus aureus): 8 µM
MIC (Pseudomonas aeruginosa): 32 µM
MIC (Escherichia coli [2]): 16 µM
MIC (Klebsiella pneumoniae): 16 µM
MIC (Bacillus subtilis): 8 µM

H-RRRRRRKWWWWWW-NH2
MIC (Acinetobacter baumannii): 16 µM
CC50 at 1 h [1]: 51.5 µM
MHC10 (Erythrocyte): 24.89 µM
MIC (Staphylococcus aureus): 32 µM
MIC (Pseudomonas aeruginosa): 64 µM
MIC (Escherichia coli [2]): 16 µM
MIC (Klebsiella pneumoniae): 32 µM
MIC (Bacillus subtilis): 8 µM

N=C(N)NCCC[C@H](N)C(=O)NCCCC[C@H](NC(=O)[C@@H](N)CCCNC(=N)N)C(=O)N[C@@H](Cc1c[nH]c2ccccc12)C(N)=O (H-Arg-Lys(Arg)-Trp-NH2)
MIC (Acinetobacter baumannii): > 128 µM
CC50 at 1 h [1]: > 128 µM
MHC10 (Erythrocyte): > 256 µM
MIC (Staphylococcus aureus): > 128 µM
MIC (Pseudomonas aeruginosa): > 128 µM
MIC (Escherichia coli [2]): > 128 µM
MIC (Klebsiella pneumoniae): > 128 µM
MIC (Bacillus subtilis): > 128 µM

N=C(N)NCCC[C@H](N)C(=O)NCCCC[C@H](NC(=O)[C@@H](N)CCCNC(=N)N)C(=O)N[C@@H](Cc1c[nH]c2ccccc12)C(=O)N[C@@H](Cc1c[nH]c2ccccc12)C(N)=O (H-RK(Arg)WW-NH2)
MIC (Acinetobacter baumannii): > 128 µM
CC50 at 1 h [1]: > 128 µM
MHC10 (Erythrocyte): > 256 µM
MIC (Staphylococcus aureus): > 128 µM
MIC (Pseudomonas aeruginosa): > 128 µM
MIC (Escherichia coli [2]): > 128 µM
MIC (Klebsiella pneumoniae): > 128 µM
MIC (Bacillus subtilis): 128 µM (≈ 106 µg/mL)

N=C(N)NCCC[C@H](NC(=O)[C@H](CCCNC(=N)N)NC(=O)[C@H](CCCNC(=N)N)NC(=O)[C@H](CCCNC(=N)N)NC(=O)[C@H](CCCNC(=N)N)NC(=O)[C@H](CCCNC(=N)N)NC(=O)[C@H](CCCCNC(=O)[C@H](Cc1c[nH]c2ccccc12)NC(=O)[C@H](Cc1c[nH]c2ccccc12)NC(=O)[C@@H](N)Cc1c[nH]c2ccccc12)NC(=O)[C@H](Cc1c[nH]c2ccccc12)NC(=O)[C@H](Cc1c[nH]c2ccccc12)NC(=O)[C@@H](N)Cc1c[nH]c2ccccc12)C(N)=O (H-WWWK([Trp-Trp-Trp])RRRRRR-NH2)
MIC (Acinetobacter baumannii): 32 µM (≈ 70.4 µg/mL)
CC50 at 1 h [1]: 41.7 µM
MHC10 (Erythrocyte): 17.61 µM
MIC (Staphylococcus aureus): 16 µM (≈ 35.2 µg/mL)
MIC (Pseudomonas aeruginosa): 16 µM (≈ 35.2 µg/mL)
MIC (Escherichia coli [2]): 32 µM (≈ 70.4 µg/mL)
MIC (Klebsiella pneumoniae): 32 µM (≈ 70.4 µg/mL)
MIC (Bacillus subtilis): 8 µM (≈ 17.6 µg/mL)

H-RRKWW-NH2
MIC (Acinetobacter baumannii): > 128 µM
CC50 at 1 h [1]: > 128 µM
MHC10 (Erythrocyte): > 256 µM
MIC (Staphylococcus aureus): > 128 µM
MIC (Pseudomonas aeruginosa): > 128 µM
MIC (Escherichia coli [2]): > 128 µM
MIC (Klebsiella pneumoniae): > 128 µM
MIC (Bacillus subtilis): 64 µM

H-RRRRRRKWWWWW-NH2
MIC (Acinetobacter baumannii): 32 µM
CC50 at 1 h [1]: 55.1 µM
MHC10 (Erythrocyte): 42.8 µM
MIC (Staphylococcus aureus): 16 µM
MIC (Pseudomonas aeruginosa): 32 µM
MIC (Escherichia coli [2]): 16 µM
MIC (Klebsiella pneumoniae): 32 µM
MIC (Bacillus subtilis): 8 µM

N=C(N)NCCC[C@H](NC(=O)[C@H](CCCNC(=N)N)NC(=O)[C@@H](N)CCCNC(=N)N)C(=O)NCCCC[C@H](NC(=O)[C@H](CCCNC(=N)N)NC(=O)[C@H](CCCNC(=N)N)NC(=O)[C@@H](N)CCCNC(=N)N)C(=O)N[C@@H](Cc1c[nH]c2ccccc12)C(=O)N[C@@H](Cc1c[nH]c2ccccc12)C(=O)N[C@@H](Cc1c[nH]c2ccccc12)C(=O)N[C@@H](Cc1c[nH]c2ccccc12)C(=O)N[C@@H](Cc1c[nH]c2ccccc12)C(N)=O
MIC (Acinetobacter baumannii): 32 µM (≈ 64.4 µg/mL)
CC50 at 1 h [1]: 41.4 µM
MHC10 (Erythrocyte): 91.08 µM
MIC (Staphylococcus aureus): 16 µM (≈ 32.2 µg/mL)
MIC (Pseudomonas aeruginosa): 16 µM (≈ 32.2 µg/mL)
MIC (Escherichia coli [2]): 16 µM (≈ 32.2 µg/mL)
MIC (Klebsiella pneumoniae): 16 µM (≈ 32.2 µg/mL)
MIC (Bacillus subtilis): 8 µM (≈ 16.1 µg/mL)

N=C(N)NCCC[C@H](NC(=O)[C@H](CCCNC(=N)N)NC(=O)[C@@H](N)CCCNC(=N)N)C(=O)NCCCC[C@H](NC(=O)[C@H](CCCNC(=N)N)NC(=O)[C@H](CCCNC(=N)N)NC(=O)[C@@H](N)CCCNC(=N)N)C(=O)N[C@@H](Cc1c[nH]c2ccccc12)C(=O)N[C@@H](Cc1c[nH]c2ccccc12)C(=O)N[C@@H](Cc1c[nH]c2ccccc12)C(=O)N[C@@H](Cc1c[nH]c2ccccc12)C(=O)N[C@@H](Cc1c[nH]c2ccccc12)C(=O)N[C@@H](Cc1c[nH]c2ccccc12)C(N)=O (H-RRRK([Arg-Arg-Arg])WWWWWW-NH2)
MIC (Acinetobacter baumannii): 32 µM (≈ 70.4 µg/mL)
CC50 at 1 h [1]: 34 µM
MHC10 (Erythrocyte): 22.12 µM
MIC (Staphylococcus aureus): 32 µM (≈ 70.4 µg/mL)
MIC (Pseudomonas aeruginosa): 32 µM (≈ 70.4 µg/mL)
MIC (Escherichia coli [2]): 32 µM (≈ 70.4 µg/mL)
MIC (Klebsiella pneumoniae): 32 µM (≈ 70.4 µg/mL)
MIC (Bacillus subtilis): 16 µM (≈ 35.2 µg/mL)

N=C(N)NCCC[C@H](NC(=O)[C@H](CCCNC(=N)N)NC(=O)[C@H](CCCCNC(=O)[C@@H](N)Cc1c[nH]c2ccccc12)NC(=O)[C@@H](N)Cc1c[nH]c2ccccc12)C(N)=O (H-WK(Trp)RR-NH2)
MIC (Acinetobacter baumannii): > 128 µM
CC50 at 1 h [1]: > 128 µM
MHC10 (Erythrocyte): > 256 µM
MIC (Staphylococcus aureus): > 128 µM
MIC (Pseudomonas aeruginosa): > 128 µM
MIC (Escherichia coli [2]): > 128 µM
MIC (Klebsiella pneumoniae): > 128 µM
MIC (Bacillus subtilis): > 128 µM

H-WWWWWWKRRRRRRR-NH2
MIC (Acinetobacter baumannii): 32 µM
CC50 at 1 h [1]: 46.6 µM
MHC10 (Erythrocyte): 27.86 µM
MIC (Staphylococcus aureus): 32 µM
MIC (Pseudomonas aeruginosa): 32 µM
MIC (Escherichia coli [2]): 32 µM
MIC (Klebsiella pneumoniae): 32 µM
MIC (Bacillus subtilis): 16 µM

H-RRRRKWWWWW-NH2
MIC (Acinetobacter baumannii): 32 µM
CC50 at 1 h [1]: 63.6 µM
MHC10 (Erythrocyte): 45.69 µM
MIC (Staphylococcus aureus): 8 µM
MIC (Pseudomonas aeruginosa): 32 µM
MIC (Escherichia coli [2]): 8 µM
MIC (Klebsiella pneumoniae): 16 µM
MIC (Bacillus subtilis): 4 µM

CO[C@H]1/C=C/O[C@@]2(C)Oc3c(C)c(O)c4c(O)c(c(/C=N/N5CCN(C)CC5)c(O)c4c3C2=O)NC(=O)/C(C)=C\C=C\[C@H](C)[C@H](O)[C@@H](C)[C@@H](O)[C@@H](C)[C@H](OC(C)=O)[C@@H]1C [RIFAMPIN]
MIC (Acinetobacter baumannii): < 1 µM
Activity (Escherichia coli [3]): Active
MIC (Staphylococcus aureus): < 1 µM
MIC (Pseudomonas aeruginosa): 32 µM (≈ 26.3 µg/mL)
MIC (Escherichia coli [2]): 4 µM (≈ 3.29 µg/mL)
MIC (Klebsiella pneumoniae): 32 µM (≈ 26.3 µg/mL)
MIC (Bacillus subtilis): < 1 µM
